biological target: T1, Prunasin hydrolase (Prunus dulcis, UniProt H9ZGD9); experiment: Enzyme Assay; settings: pH 5.6; 37 °C
T1 sequence (H9ZGD9 whole entry): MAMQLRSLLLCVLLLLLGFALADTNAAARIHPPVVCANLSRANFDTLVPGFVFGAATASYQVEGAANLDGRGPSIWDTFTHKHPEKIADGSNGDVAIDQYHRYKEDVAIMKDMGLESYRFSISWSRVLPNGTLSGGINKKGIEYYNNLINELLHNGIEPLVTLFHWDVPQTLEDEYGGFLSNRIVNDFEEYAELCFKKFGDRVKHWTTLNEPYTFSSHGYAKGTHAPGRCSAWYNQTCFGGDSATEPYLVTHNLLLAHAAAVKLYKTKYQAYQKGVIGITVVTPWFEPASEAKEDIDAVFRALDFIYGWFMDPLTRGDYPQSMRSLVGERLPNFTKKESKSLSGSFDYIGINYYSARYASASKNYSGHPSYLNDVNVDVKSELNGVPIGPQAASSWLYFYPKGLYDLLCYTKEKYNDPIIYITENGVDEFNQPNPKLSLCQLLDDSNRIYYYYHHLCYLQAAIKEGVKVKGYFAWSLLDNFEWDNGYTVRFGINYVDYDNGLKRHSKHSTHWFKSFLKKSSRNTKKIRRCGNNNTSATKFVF
Protocol: The enzyme activity was measured by monitoring the increase in absorbance at 400 nm due to hydrolysis of para-nitrophenyl-beta-glucopyranoside. All assays were carried out in the presence of 0.05M sodium acetate buffer (pH 5.6) and 0.1 mM EDTA at 37 C.

Compound | Ki
OC[C@H]1O[C@@H](Oc2ccc(C(F)F)cc2)[C@H](O)[C@@H](O)[C@@H]1O [Glucosidase inhibitor, 6a] | 1700 µM
COc1cc(C(F)F)cc(OC)c1O[C@@H]1O[C@H](CO)[C@@H](O)[C@H](O)[C@H]1O [Glucosidase inhibitor, 6d] | 1900 µM
COc1ccc(O[C@@H]2O[C@H](CO)[C@@H](O)[C@H](O)[C@H]2O)c(C(F)F)c1 [Glucosidase inhibitor, 6f] | 900 µM
OC[C@H]1O[C@@H](Oc2ccccc2C(F)F)[C@H](O)[C@@H](O)[C@@H]1O [Glucosidase inhibitor, 6e] | 3700 µM

These reach a lower Ki. Values come first.

Ki | Compound
800 µM | COc1cc(CF)ccc1O[C@@H]1O[C@H](CO)[C@@H](O)[C@H](O)[C@H]1O [Glucosidase inhibitor, 11]
100 µM | CCOc1cc(C(F)F)ccc1O[C@@H]1O[C@H](CO)[C@@H](O)[C@H](O)[C@H]1O [Glucosidase inhibitor, 6c]
60 µM | COc1cc(C(F)F)ccc1O[C@@H]1O[C@H](CO)[C@@H](O)[C@H](O)[C@H]1O [Glucosidase inhibitor, 6b]

From BindingDB's records for doi:10.7270/Q20R9MZM (Merrell Dow Research Institute, 1990)
